Patent publication US20130274235A1, “TREATMENT OF MOTOR NEURON DISEASE” (THE GENERAL HOSPITAL CORPORATION, priority 2010, published 2013)
Where “and” joins values, the source holds several entries; their conditions need not be identical. Equal entries are not always repeated. Entries after “also recorded” stand apart in the source; their conditions may differ. Structures can show the parent of a compound that is named as a salt. Where two headings read alike, the source gives them in different places.

Columns and labels:
[1] = system: motor neurons in primary spinal cord cultures; test: Low-level progressive glutamate excitotoxicity in primary spinal cord cultures; format: cell-based, mice; conditions: drug pretreatment, glutamate/PDC treatments 48 hours apart, FIG. 8
Experimental: Primary spinal cord cultures from E12 pregnant mice were pre-treated for 72 hours with 1 μM, 2.5 μM, 5 μM, or 10 μM of a selected drug according to prior optimized dosing regimen. Drugs tested were identified during screening of qPCR. Subsequently, experimental cultures were grown in the presence of 0, 1.0 μM, 2.5 μM, or 10 μM drug for 24 hours prior to exposure to two glutamate (20 μM)/PDC (1 μM) or glutamate (50 μM)/PDC (10 μM) treatments 48 hours apart. Control samples (no glutamate/PDC treatment) were cultured for 24 hours in the presence of 10 μM drug administered 3 times to determine toxicity of treatment. All cultures were then fixed and stained with ChAT, Hoechst stain of the nuclei, and Islet1/2 antibody labels for the motorneuron columns. Results were analyzed using an In Cell Analyzer (GE Healthcare). Results were presented as percent of vehicle (DMSO) treated control cells.

[2] = system: IGF-II mRNA; test: IGF-II expression assay, qPCR detection, in primary spinal cord cultures; format: cell-based, mice
Experimental: Quantitative PCR utilizing SYBR green I (Molecular Probes, Eugene, Oreg.) or specific Taqman probes was used to confirm differential gene expression. RNA extracted from 100-200 LCMed motor neurons were reverse transcribed using Superscript III (Invitrogen). 2 μl of diluted cDNA was amplified (DNA Engine Opticon real-time PCR machine, Bio-Rad), in […] reactions containing 900 nM primer and 250 nM probe in Taqman Universal Master Mix (Applied Biosystems). Reactions were run in duplicate and each gene analyzed in at least three different animals. Reaction parameters were as follows: 50° C. for 2 min, 95° C. for 10 min, and 40 cycles of 95° C. for 15 s and 60° C. for 1 min. Controls lacking template and/or Superscript were included. The absolute copy number for each gene was quantified using a standard curve from human GAPDH plasmid and amplified products were normalized against rat GAPDH expression. Primers and probes (Integrated DNA technologies) were as follows: rat GAPDH: Forward primer: […]
Two libraries of FDA-approved drugs (NINDS and Harvard LDDN) were screened for their ability to up-regulate IGF-II expression. Candidate compounds were screened in an IGF-II expression assay using a qPCR detection methodology in primary spinal cord cultures or using a luciferase reporter assay. In the initial screening, therapeutic candidates were identified as those that increased IGF-II expression by at least 2-fold. […]

[3] = system: IGF-II P4 promoter; conditions: cited from earlier work
[4] = system: IGF-II P4 promoter; test: Luciferase reporter assay, P4 IGF-II promoter cell line (SK-N-FI cells); format: cell-based; conditions: FIG. 9, HCl
Experimental: pGL4.17[luc/Neo] reporter constructs were transfected to contain the P4 IGF-II promoter using the Blue Heron Bio GeneMaker. After transfection of reporter constructs into SK-N-FI cells+IGF-II using G418 selection pressure for generation of stable cell-line, clonal expansion, IGF-II up-regulating drugs such as glucocorticoids were added, and luminescence was measured. The cell lines were optimized for luciferase intensity, background, and responsiveness. The transfected cells were then used to screen the drug libraries described above
The P4 promoter cell line was cultured as described above. Eight drugs that were positive in the small library screen were tested as described above, and luciferase luminescence was measured. Of the eight tested drugs, four acted on the P4 IGF-II promoter. The best-performing non-glucocorticoid candidate that was tested was Vardenafil HCl. […] Vardenafil HCl is a phosphodiesterase type 5 (PDE5) inhibitor with a structure as shown in FIG. 11 and is known to increase cellular cGMP. Vardenafil has been previously FDA approved for treatment of erectile dysfunction and is also clinically used for treating pulmonary hypertension, and is in preclinical studies as a treatment of cystic fibrosis.

[5] = system: IGF-II protein; test: IGF-II protein expression in primary spinal cord cultures, quantitated by ELISA; format: cell-based, mice
Description: Further results of the library screening identified the following therapeutic agents as having a significant inducing effect on IGF-II expression in primary spinal cord cultures and are useful for treating motor neuron disease. Protein expression was quantitated by ELISA.

[6] = system: spinal motor neurons in primary culture; test: Neuroprotection against glutamate-induced toxicity in primary spinal cord cultures; format: cell-based, rat; conditions: 10-100 ng/ml, 2-4 h pretreatment; 20 μM glutamate + 100 μM PDC
Experimental: Time-pregnant Sprague Dawley wild-type rats were anesthetized, decapitated and E15.5 embryos collected, decapitated and spinal cords isolated in Hanks balanced salt solution (HBSS, Invitrogen). Dissections of spinal cords were done carefully to avoid the inclusion of somites or other external tissues. Cells were dissociated by gentle trituration and incubation with papain (Worthington Biochemical Corporation). Cells were cultured for 6 days in Neurobasal media (Invitrogen) containing 10% fetal bovine serum (FBS, Fisher scientific), 1×B27 supplement (Invitrogen), 500 μM glutamine (Invitrogen), […] mercaptoethanol (Invitrogen), Penicillin-Streptomycin (Invitrogen) or in DMEM/F12 (Invitrogen) containing 5% FBS, 1×N2 supplement A (Stem Cell Technologies), glucose (0.36%, Sigma), bovine serum albumin (0.25%, Invitrogen), Penicillin-Streptomycin (Invitrogen). Either culture media could maintain spinal cord cultures containing motor neurons. […]
For immunofluorescent staining, coverslips/sections were rinsed with phosphate buffered saline and incubated with blocking buffer (see above) for 1 h. […] The effect of glutamate, IGF-II and/or guanine deaminase on motor neuron survival was carefully evaluated, as was the co-localization of motor neuron markers.

Molecule: N=C(N)N/N=C/c1c(Cl)cccc1Cl [Guanabenz acetate]
- protection of motor neurons against glutamate/PDC excitotoxic insult [1]: provided a level of protection
- Fold Increase in IGF-II mRNA Expression [2]: 3.8 fold
- induction of IGF-II expression (in words) ([2]; antihypertensive agents, FIGS. 5 and 6): most active

Molecule: C[C@]12CCC(=O)C=C1CC[C@@H]1[C@@H]2[C@@H](O)C[C@@]2(C)[C@H]1CC[C@]2(O)C(=O)CO [hydrocortisone]
- P4 IGF-II promoter activation (known) [3]: known P4 activator

Molecule: CCCc1nc(C)c2c(=O)[nH]c(-c3cc(S(=O)(=O)N4CCN(CC)CC4)ccc3OCC)nn12 [Vardenafil HCl]
- protection of motor neurons against glutamate/PDC excitotoxic insult ([1]; HCl): provided a level of protection; also recorded: rescues primary motor neurons from low-level progressive glutamate toxicity
- luciferase luminescence, activation of P4 IGF-II promoter [4]: roughly equal to those of Hydrocortisone at three concentrations; also recorded: activation, as shown in FIG. 9, at a level similar to the known P4 activator hydrocortisone
- Fold Increase in IGF-II Protein Expression [5]: 1.6 fold
- IGF-II Protein Expression (pg/ml in media) ([5]; in media): (245 ± 27) pg/ml
- Fold Increase in IGF-II mRNA Expression ([2]; HCl): 6.5 fold and 6.5 ± 0.2 fold

Molecule: IGF-II: recombinant IGF-II (R&D Systems), added exogenously to primary spinal cord cultures
- protection of motor neurons from glutamate-induced toxicity [6]: blocked glutamate-induced motor neuron loss completely; also recorded: protected motor neurons against the toxicity; also recorded: protected motor neurons from glutamate-induced toxicity
